For data set [1], the system named is primary cerebral cortical cultures. The data set can be described thus: Neurotoxicity (LDH release) of AD microvessel-conditioned medium. It is filed as cell-based, rat. The method, then: Microvessels stored in liquid nitrogen, were quick-thawed at 37° C. and centrifuged at 2,000×g for 10 min. The vessels were washed 3 times with cold Hank's balanced salt-solution and resuspended in serum-free DMEM (2 ml) containing 1% lactalbumin hydrolysate. Microvessels were allowed to “recover” for 1 h, after which they released little LDH. The microvessels were washed by centrifugation and resuspended at a concentration of 100 μg protein per ml in serum-free DMEM containing 1% lactalbumin hydrolysate. The microvessels were then incubated for variable times (4-24 h) in a CO2 incubator, centrifuged, and the conditioned medium was sterile-filtered through a 0.4 μm filter, and used immediately.
Procedures for primary neuronal cultures prepared from fetal rat brains were previously described (Grammas P, Moore P, Weigel P H, “Production of Neurotoxic Factors by Brain Endothelium in AD”, Ann. NY Acad. Sci., 826, 1997, which is hereby incorporated herein by reference.) Neurons are obtained and cultured from 17 day fetal rats. […] The purity of these cultures was determined by antibody reactivity to neuronal-specific enolase.
Cell death by necrosis was determined by release of cytoplasmic lactate dehydrogenase (LDH) (Grammas et al., “Production Of Neurotoxic Factors By Brain Endothelium In AD”, Ann NY Acad Sci, 826:47-55, 1997). […] The A490 of each well was measured to determine LDH activity. […]
For orientation: LDH in the medium is a marker of cell lysis.

The subject of data set [2] is neuronal cultures. In words: Neuronal cytotoxicity (LDH release) of conditioned media from rat brain endothelial cells treated with PKC modulators. In kind it is cell-based. The note with it: for EDTF^BIM release from endothelial cell cultures: treatment with other PKC inhibitors; for cytotoxic response as % of that elicited by BIM: inhibitor 1 μM on endothelial cells, BIM-mediated cytotoxicity = 100%. On the procedure: FIG. 8. Specificity of endothelial derived toxic factor EDTF response to Protein Kinase C inhibition. To confirm that production of EDTF in response to BIM (EDTF^BIM) was indeed related to PKC inhibition, the effect of other PKC inhibitors, calphostin (Cal) and stauroporine (S'sporin) as well as the PKC agonist PMA, were examined. Endothelial cell cultures were incubated in serum-free media (control) containing either BIM (1 μM); BIM and PMA (1 μM each); calphostin (1 μM); or staurosporine (1 μM). The media were collected after 24 hours and added to neuronal cultures and cytotoxicity (LDH release) was measured after 24 hours. Data are expressed as a percentage of the BIM-mediated cytotoxicity (100%).
(§1) Cell death by necrosis was determined by release of cytoplasmic lactate dehydrogenase (LDH) (Grammas et al., “Production Of Neurotoxic Factors By Brain Endothelium In AD”, Ann NY Acad Sci, 826:47-55, 1997). Medium (100 μl) from the neuronal cultures was removed, added to a 96-well plate, the chromogenic substrate added, and the plate was incubated at room temperature for 30 min in darkness. The A490 of each well was measured to determine LDH activity. Data (% cytotoxicity) were expressed as a percentage of total LDH released by treatment with 1% Triton X-100 added to the same well. Vascular LDH release, determined for microvessel-containing inserts placed in wells without neuronal cells, was subtracted from each co-culture point. Each point was performed in duplicate.
For the preparation of endothelial-conditioned media, the media were removed and confluent endothelial cell cultures washed with versene and fresh serum-free DMEM containing (unless otherwise indicated) 1 μM of the PKC inhibitor, bisindolylmaleimide (BIM), was added. The conditioned medium was collected, after 8-24 hrs, and centrifuged at 100,000 g to remove debris and suspended cells, and 5% heat-inactivated horse serum was added prior to application of media to neuronal cultures.
Neurons were obtained and cultured from 15-18 day rat embryos by published methods (Dawson V. L., Dawson, T. M., London E. D., Bredt D. S., Snyder S. H., “Nitric Oxide Mediates Glutamate Neurotoxicity in Primary Cortical Cultures”, Proc. Natl. Acad. Sci. USA, 88:6368-6371, 1991, with our modifications: Grammas P, Moore P, Weigel P H, “Production of Neurotoxic Factors by Brain Endothelium in AD”, Ann. NY Acad. Sci., 826, 1997). Cerebral cortices were isolated, dissociated in Brooks-Logan solution (5% phosphate buffered saline, 0.04 M sucrose, 10 mM HEPES, pH 7.5, 0.03 M glucose) by trituration and seeded in polylysine-coated 24 well plates (15), containing DMEM with 5% heat-inactivated horse serum. After five days of culture, the cells were treated with 10 μg of 5-fluoro-2′-deoxyuridine per well and cultures were maintained for an additional 2 to 3 weeks.

The subject of data set [3] is primary cerebral cortical cultures. The data set can be described thus: Neuronal necrosis by candidate molecules at 4 h. It is filed as cell-based, rat. The note with it: data not shown. On the procedure: as §1
For another data set, the system named is endothelial cultures. In kind it is cell-based, rat. On the procedure:
as §1
Small arterioles from rat brain were isolated, and endothelial cell cultures initiated, as previously published (Diglio C. A., Grammas P., Giacomelli F. and Wiener J., “Rat Cerebral Microvascular Smooth Muscle Cells in Culture”, J. Cell Physiol., 129:131-141, 1986; Diglio C. A., Liu W., Grammas P., Giacomelli F., and Wiener J., “Isolation and Characterization of Cerebral Resistance Vessel Endothelium in Culture”, Tissue and Cell, 25:833-846, 1993). […] Cells (passages 10-15) were maintained in Dulbecco's modified Eagle's medium (DMEM) and 10% fetal calf serum and subcultured using trypsin-versene (0.025%).

Data set [4] relates to neuronal cultures. In kind it is cell-based, rat. On the procedure:
as §1
Neurons were obtained and cultured from 15-18 day rat embryos by published methods (Dawson V. L., Dawson, T. M., London E. D., Bredt D. S., Snyder S. H., “Nitric Oxide Mediates Glutamate Neurotoxicity in Primary Cortical Cultures”, Proc. Natl. Acad. Sci. USA, 88:6368-6371, 1991, with our modifications: Grammas P, Moore P, Weigel P H, “Production of Neurotoxic Factors by Brain Endothelium in AD”, Ann. NY Acad. Sci., 826, 1997). […]

Results on 9 molecules are retold here after US20010009764A1, “Endothelial-derived toxic factor” (priority 1997, published 2001).

For `N=C(NCCC[C@H](N)C(=O)O)N[N+](=O)[O-]` [N^GNitro-L-arginine], in data set [1] (AD microvessels with or without preincubation with 10 μM N^GNitro-L-arginine), the “% neurotoxicity of conditioned medium” value amounted to 69±12%. With `CCCCCCCCCCCCCC(=O)O[C@@H]1[C@@H](C)[C@@]2(O)[C@@H](C=C(CO)C[C@]3(O)C(=O)C(C)=C[C@@H]23)[C@@H]2C(C)(C)[C@]12OC(C)=O` [PMA, phorbol myristate acetate], in the data set with neuronal cultures [2] (concurrent PMA and BIM, 1 μM each, media collected 24 hours, LDH after 24 hours), the “reduction of neuronal cytotoxicity (EDTF^BIM release) compared to BIM alone” value was “approximately 60%”. Regarding `C[C@@H]1C[C@@H]([C@H](O)CC2CC(=O)NC(=O)C2)C(=O)[C@@H](C)C1` [cycloheximide], the “decrease in neuronal necrosis” value in data set [1] (AD microvessels incubated with cycloheximide 10 μg/ml) came to 60%. As for `CCCCCCCCCCCCC/C=C/[C@@H](O)[C@@H](N)CO` [sphingosine], in the data set with neuronal cultures [2], the “EDTF^BIM release from endothelial cell cultures” value is given as “elicited EDTF^BIM release”.

As for `CN[C@@H]1C[C@H]2O[C@@](C)([C@@H]1OC)n1c3ccccc3c3c4c(c5c6ccccc6n2c5c31)C(=O)NC4` [staurosporine], in the data set on neuronal cultures [2], the “cytotoxic response as % of that elicited by BIM” value was found to be 47%. Regarding amyloid β, in data set [3], the “neuronal necrosis at 4 h” value was “little neuronal necrosis”.

In the case of bisindolylmaleimide [BIM], in the data set on endothelial cultures, the “% cytotoxicity on endothelial cultures” value turned out to be 10%. Further, the “% cytotoxicity when added directly to neuronal cultures” value in the data set with neuronal cultures [4] is given as 16%. Take calphostin: in the data set with neuronal cultures [2], the “cytotoxic response as % of that elicited by BIM” value worked out at 60% and the “EDTF^BIM release from endothelial cell cultures” value is reported as “elicited EDTF^BIM release”. tumor necrosis factor α: the “neuronal necrosis at 4 h” value in data set [3] is on record as “little neuronal necrosis”.
